Results from patent EP0383591B1, “Use of 5-methyl-1-phenyl-2-(1H)-pyridone in the prevention of fibrotic lesions” (Yamauchi, Shitotomo, priority 1989, dated 1990).
“And” between values parts separate entries of the source, which are not always exact repeats. Equal entries are not always repeated. Marks after values point to notes of the source that are not given here.

Columns and labels:
[1] = tested on: fibrosis (interstitial hyperplasia); test: Histopathological examination of the lungs of rats for fibrosis after 5MP2P in the diet; format: in vivo
Description: The results of a histopathological examination of the lungs of rats for fibrosis (interstitial hyperplasia) after receiving 300 mg/kg body of 5MP2P in the diet for three months are summarized in Table 2. The individual microscopic readings of the lung are also shown in Table 2, a score schedule of 0, 1, 2 and 3 reflects the degree of fibrosis.
The data in […] reveal a statistically significant reduction in amount of fibrosis in rats receiving 5MP2P as compared to placebo control rats (Group 1). The mean score for the controls (Group 1) was 1.63 + 0.23, and for Group IV (5MP2P, 300 mg/kg body weight daily) was 0.95 + 0.23.
Student's T value was 2.43, with P less than 0.02 (highly significant statistically).

Acute toxicity (LD50) = settings: in vivo
From the text: The acute toxicity of the ingredient in the medical composition of the present invention which exerts the anti-fibrotic activity is as shown in the table below.

[2] = tested on: Asbestos-Induced Pulmonary Interstitial Fibrosis; test: Effect of oral 5MP2P upon asbestos-induced pulmonary interstitial fibrosis in hamsters; format: in vivo; set-up: key to Pulmonary Fibrosis Scores Light Microscope (individual animal) / Pulmonary Fibrosis Scores Electron Microscope (individual animal): 0 = normal tissue; 1 = minimal; 2 = moderate; 3 = severe
From the text: In hamsters, pulmonary fibrosis induced with crysotile asbestos was removed following oral 5MP2P (cf. Table 4).
The novel role of 5MP2P in the therapeutic repair of fibrotic lung tissue featuring removal of fibrotic lesions, and concomitant regeneration of normal lung tissue has been observed in experimental asbestosis by histopathological examination of lung tissue specimens under the light microscope, and electron microscopy (Table 4).
This was subsequently confirmed by ashing of lung specimens in a laboratory oven, and then determining the asbestos content.

[3] = tested on: Pulmonary Interstitial Hyperplasia (Fibrosis); test: Effect of oral 5MP2P upon pulmonary interstitial hyperplasia in dogs; format: in vivo, Beagle dogs; settings: for Hyperplasia Scores 0 (number of dogs): 0 = normal tissue; for Hyperplasia Scores 1 (number of dogs): 1 = minimal; for Hyperplasia Scores 2 (number of dogs): 2 = moderate; for Hyperplasia Scores 3 (number of dogs): 3 = severe; for Incidence of Normal Lung / Average Scores (hyperplasia): dogs; for Incidence of Normal Lung: control 0/9; for Average Scores (hyperplasia): score 0-3, control 2.11+0.31
[4] = tested on: Pulmonary Interstitial Hyperplasia (Fibrosis); test: as above; format: in vivo, Beagle dogs
Description: The mean score for Group I (Control) was 2.11 + 0.31, and for Group IV, which received 5MP2P, 150 mg/kg per day orally in capsules, was 0.22 + 0.15.

[5] = 300 mg/kg in the diet for three months, 19 animals
[6] = hamsters, Group III: asbestos by inhalation for 5 days, 5MP2P 500 MG/KG/day orally in the diet for two months, beginning two months after exposure

## Cc1ccc(=O)n(-c2ccccc2)c1 [5MP2P, 5-Methyl-1-phenyl-2-(1H)-pyridone]
[1]; [5]
  Lung Connective Tissue Score 0, Total (number of animals): 5
  Lung Connective Tissue Score 1, Total (number of animals): 11
  Lung Connective Tissue Score 2, Total (number of animals): 2
  Lung Connective Tissue Score 3, Total (number of animals): 1
[1]; Group IV, 300 mg/kg body weight daily in the diet for three months, score schedule 0-3, control mean 1.63, P<0.02, 300 mg/kg
  Lung Connective Tissue Score, Mean: 0.95 ± 0.23 and 0.95
Acute toxicity (LD50); ip, Guinea pig
  LD50: 460 ± 28 mg/kg
Acute toxicity (LD50); ip, Mouse
  LD50: 600 ± 43 mg/kg
Acute toxicity (LD50); ip, Rat
  LD50: 430 ± 29 mg/kg
Acute toxicity (LD50); iv, Cat
  LD50: 40 mg/kg
Acute toxicity (LD50); iv, Dog
  LD50: 200 mg/kg
Acute toxicity (LD50); iv, Monkey
  LD50: 100 mg/kg
Acute toxicity (LD50); iv, Mouse
  LD50: 285 ± 5 mg/kg
Acute toxicity (LD50); iv, Rabbit
  LD50: 280 ± 32 mg/kg
Acute toxicity (LD50); po, Cat
  LD50: 500 mg/kg
Acute toxicity (LD50); po, Dog
  LD50: 300 mg/kg
Acute toxicity (LD50); po, Guinea pig
  LD50: 810 ± 25 mg/kg
Acute toxicity (LD50); po, Mouse
  LD50: 998 mg/kg
Acute toxicity (LD50); po, Rat female
  LD50: 2300 mg/kg
Acute toxicity (LD50); po, Rat male
  LD50: 1300 mg/kg
[2]; after 5MP2P had been discontinued for two months
  recurrence of asbestos-induced fibrosis: did not recur
[2]; electron microscope, confirmed by ashing of lung specimens and determining the asbestos content
  lung cell-imbedded asbestos fibers: had been removed
[2]; hamsters, Group III, 500 MG/KG/day in the diet for two months, asbestos without 5MP2P 2.53+0.23, no asbestos 1.00+0.05
  Pulmonary Fibrosis Scores Lung Density, Average: 1.17+0.10**
[2]; hamsters, Group III, 500 MG/KG/day in the diet for two months, asbestos without 5MP2P 2.75+0.25, no asbestos 0.25+0.25
  Pulmonary Fibrosis Scores Electron Microscope, Average: 0.25+0.25**
[2]; hamsters, Group III, 500 MG/KG/day in the diet for two months, asbestos without 5MP2P 2.75+0.25, no asbestos 0.50+0.25
  Pulmonary Fibrosis Scores Light Microscope, Average: 1.00+0.41**
[2]; [6]
  Pulmonary Fibrosis Scores Electron Microscope (individual animal): 0 (3×) and 1
  Pulmonary Fibrosis Scores Light Microscope (individual animal): 0 and 2 and 1 (2×)
  Pulmonary Fibrosis Scores Lung Density (individual animal): 0.98 and 1.04 and 1.26 and 1.41
[2]; hamsters, oral 5MP2P
  pulmonary fibrosis induced with crysotile asbestos: removed
[3]; 25 MG/KG/day, 6 dogs
  Hyperplasia Scores 0 (number of dogs): 1
  Hyperplasia Scores 1 (number of dogs): 1
  Hyperplasia Scores 2 (number of dogs): 4
  Hyperplasia Scores 3 (number of dogs): 0
[3]; 75 MG/KG/day, 8 dogs
  Hyperplasia Scores 0 (number of dogs): 2
  Hyperplasia Scores 1 (number of dogs): 2
  Hyperplasia Scores 2 (number of dogs): 3
  Hyperplasia Scores 3 (number of dogs): 1
[3]; 150 MG/KG/day, 9 dogs
  Hyperplasia Scores 2 (number of dogs): 0
  Hyperplasia Scores 3 (number of dogs): 0
[3]; 25 MG/KG/day oral
  Incidence of Normal Lung: 1/6
[3]; 75 MG/KG/day oral
  Incidence of Normal Lung: 2/8
[3]; Group II, 25 MG/KG/day oral
  Average Scores (hyperplasia): 1.50+0.34
[3]; Group III, 75 MG/KG/day oral
  Average Scores (hyperplasia): 1.38+0.38
[4]; 150 MG/KG/day, 9 dogs, 0 = normal tissue
  Hyperplasia Scores 0 (number of dogs): 7
[4]; 150 MG/KG/day, 9 dogs, 1 = minimal
  Hyperplasia Scores 1 (number of dogs): 2
[4]; dogs, 150 MG/KG/day oral, control 0/9
  Incidence of Normal Lung: 7/9
